From PMC11040352, “CD38‐Specific Gallium‐68 Labeled Peptide Radiotracer Enables Pharmacodynamic Monitoring in Multiple Myeloma with PET” (Advanced Science, 2024)

Legend:
[1] = target: T1, recombinant human CD38 protein (Homo sapiens, UniProt P28907); assay: Affinity measurement by surface plasmon resonance (SPR), human CD38; assay type: binding
T1 construct: purchased R&D systems 2404-AC
Protocol: The affinity of AJ206 for hCD38 and mCD38 recombinant proteins were evaluated by SPR. The experiments were conducted using a Biacore T200 instrument with a CM5 chip at 25 °C. The ligands used were His‐Tagged human CD38 (R&D systems, catalog # 2404‐AC, 43 kDa, 0.5 mg mL^−1 stock concentration) and mouse CD38 proteins (R&D systems, catalog # 4947‐AC, 40 kDa, 1.81 mg mL^−1 stock concentration), which were immobilized onto the CM5 chip. AJ206 (2089.2 Da, 10 × 10^−3 M stock concentration) was used as the analyte, which flowed over the ligand immobilized surface. FC2 was used as the experimental flow cell, while FC1 served as the reference. Anti‐His antibody (1 mg mL^−1 stock concentration) was immobilized on both FC1 and FC2 using standard amine coupling chemistry. The immobilization running buffer used was PBS‐P (20 × 10^−3 M phosphate buffer pH 7.4, 137 × 10^−3 M NaCl, 2.7 × 10^−3 M KCl, 0.05% v/v surfactant P20). Human CD38 was captured onto FC2 at a level of ≈860 RU, with a 1:20 dilution and 25 µg mL^−1 diluted concentration in PBS‐P. Mouse CD38 was captured onto FC4 at a level of 1360 RU, with a 1:50 dilution and 36.2 µg mL^−1 diluted concentration in PBS‐P. The theoretical R max values were calculated based on the captured response values and are presented in Table 2 , assuming a 1:1 interaction mechanism. […]

[2] = tested on: PDX tumors; assay: PET imaging of patient‐derived xenografts (PDXs), incl. before and after ATRA; assay type: in vivo, NSG mice; conditions: PDX mice, oral ATRA 500 µg per day for 3 d, compared to pre‐treatment
Protocol: To establish PDX models, immune‐deficient NSG male mice (NOD/Shi‐scid IL‐2rgnull), aged 6–8 weeks, were employed after being irradiated at an absorbed dose of 200 cGy. PCL cells, sourced from two patients and anonymized, were obtained from Dr. Gocke's laboratory. Under sterile conditions, the cells were thawed and treated with DNAse at a concentration of 20 µg mL^−1. After cell counting, 30 000 cells were subjected to flow cytometry analysis to assess CD38 expression. The remaining cells were subcutaneously inoculated at a concentration of 5 × 10^6 cells in 100 µL of a solution comprising 60% Matrigel Basement Matrix (Corning 356230) diluted with HBSS. The animals were included in the experiments once the PDX volumes reached tumor volumes of 100–200 mm^3.
Mice bearing flank tumors and disseminated disease were injected intravenously with [^68Ga]Ga‐AJ206 and PET images were acquired 60 min after injection of the radiotracer. […] PET images were quantified by drawing ROI on tissues using Amide 1.0.6 and reported as %ID/cc.
To assess the pharmacodynamics of ATRA‐induced CD38 expression in vivo, mice bearing PDX tumors (n = 6) were subjected to image using [^68Ga]Ga‐AJ206 to quantify CD38 expression prior to treatment. […] All images were analyzed using AMIDE software with standard ROI analysis techniques.

[3] = tested on: MM cell lines (U266, RPMI8226, MM1S, and MOLP8); assay: ATRA treatment, flow cytometry of CD38 surface expression; assay type: cell-based, human; conditions: four MM cell lines, ATRA 48 h
Protocol: To evaluate CD38 surface expression, cells (1 × 10^6) were stained with PE‐labelled anti‐human CD38 monoclonal antibody (clone HB‐7, BioLegend Cat # 356604) in FACS buffer (0.5% FBS with 2 mM EDTA) for 30 min on ice. After washing and resuspending in FACS buffer, data were acquired on a BD Accuri C6 plus flow cytometer and analyzed using FlowJo software. Receptor density measurements were performed using Quantibrite Beads (BD Biosciences, cat #340495), which contain four levels of phycoerythrin (PE) per bead. Gates were drawn on low, medium low, medium high, and high PE binding beads, and the geometric mean from these populations was correlated with the lot‐specific PE molecule/bead on a logarithmic scale. This correlation was used to translate cell population geometric mean to receptor/cell for the respective cell type. To evaluate the pharmacodynamic effects of ATRA therapy on MM cells, U266, RPMI8226, MM1S, and MOLP8 cells were seeded at a concentration of 0.5 million in 500 µL per well in triplicates in a six‐well plate. A 200 × 10^−9 M working solution of all‐trans retinoic acid (ATRA, Sigma‐Aldrich #554720) was prepared by diluting in culture media. Next, 500 µL of the working solution was added to each well, and the cells were incubated for 48 h at 37 °C in a 5% CO2 atmosphere. […]

[4] = tested on: MM cell lines (U266, RPMI8226, MM1S, and MOLP8); assay: ATRA treatment, in vitro uptake of [^68Ga]Ga‐AJ206; assay type: cell-based, human; conditions: ATRA treated cells compared to control treatment
Protocol: In vitro binding assays were conducted to determine the binding of [^68Ga]Ga‐AJ206 to U266, RPMI8226, MM1S, and MOLP8 cells. Approximately 1 µCi of [^68Ga]Ga‐AJ206 was incubated with 1 × 10^6 cells in 100 µL of culture media for 60 min at 4 °C. After incubation, cells were washed three times with ice‐cold PBS containing 0.1% tween‐20 and counted on an automated gamma counter (1282 Compugamma CS, Pharmacia/LKB Nuclear, Inc., Gaithersburg, MD). […] All cellular uptake studies were performed in quadruplicate for each cell line and repeated three times.
To evaluate the pharmacodynamic effects of ATRA therapy on MM cells, U266, RPMI8226, MM1S, and MOLP8 cells were seeded at a concentration of 0.5 million in 500 µL per well in triplicates in a six‐well plate. A 200 × 10^−9 M working solution of all‐trans retinoic acid (ATRA, Sigma‐Aldrich #554720) was prepared by diluting in culture media. Next, 500 µL of the working solution was added to each well, and the cells were incubated for 48 h at 37 °C in a 5% CO2 atmosphere. After incubation, cells were transferred to FACS tubes, medium was removed by centrifugation, and the cells were resuspended in FACS buffer for flow cytometry and in vitro binding studies, following the same protocol as previously described.

T1 sequence (P28907 whole entry): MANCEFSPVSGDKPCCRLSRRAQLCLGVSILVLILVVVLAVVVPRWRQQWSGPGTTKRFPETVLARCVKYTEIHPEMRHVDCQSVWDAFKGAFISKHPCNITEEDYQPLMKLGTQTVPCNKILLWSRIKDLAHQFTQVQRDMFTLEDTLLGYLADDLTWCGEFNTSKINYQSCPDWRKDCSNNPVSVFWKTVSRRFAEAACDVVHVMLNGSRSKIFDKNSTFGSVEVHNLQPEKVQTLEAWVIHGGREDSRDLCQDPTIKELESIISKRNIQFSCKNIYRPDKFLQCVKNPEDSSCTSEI

Row | Structure (SMILES) | Kd ([1]; hCD38, read-out: dissociation constant (K D)) | koff ([1]; recombinant human CD38, mean ± SEM (n = 2), read-out: Koff (1/s) x10^-4) | change of [^68Ga]Ga‐AJ206 radioactivity uptake in tumors (PET) [2] | change of CD38 expression [3] | change of [^68Ga]Ga‐AJ206 radioactivity uptake in treated cells [4]
1 | CC[C@H](C)[C@@H]1NC(=O)[C@@H]2CCCN2C(=O)[C@H](Cc2ccccc2)NC(=O)[C@H](CC(=O)O)NC(=O)[C@H](C)NC(=O)[C@@H]2CSCc3cc(cc(c3)CSC[C@H](NC(=O)[C@H](C)NC(=O)CCOCCOCCOCCNC(=O)CN3CCN(CC(=O)O)CCN(CC(=O)O)CC3)C(=O)N[C@@H](C(C)C)C(=O)N3CCC[C@H]3C(=O)N2)CSC[C@@H](C(N)=O)NC(=O)[C@H](Cc2ccc(O)cc2)NC(=O)[C@H](Cc2c[nH]c3ccccc23)NC1=O [AJ206] | 19.1 ± 0.99 nM | 0.0006 ± 0.000121 s⁻¹ | – | – | –
2 | CC1=C(/C=C/C(C)=C/C=C/C(C)=C/C(=O)O)C(C)(C)CCC1 [ATRA, all‐trans retinoic acid] | – | – | significant increase | increased CD38 expression | significant increase
